Laboratory results published in PMC6749218, “Structure-Based Pharmacophore Design and Virtual Screening for Novel Tubulin Inhibitors with Potential Anticancer Activity” (Molecules, 2019).

Test system: T1, tubulin
T1 construct: gene TUBB2B
Assay: turbidimetric tubulin polymerization assay ([…] nm)
Format: biochemical
Settings: tubulin 10 µM

Row | SMILES | IC50
2 | COc1ccc(OC)c(/C=C/C(=O)c2ccc(OC)cc2OC)c1 [compound 1, hit 1] | 3.7 ± 0.5 µM
